Data published in patent publication US7534766B2, “Glucuronide metabolites and epimers thereof of tigecycline” (Wyeth, priority 2004, dated 2009).
Blank lines part the entries; values can stand above or below the compound they belong to.

Key:
[1] = LC/MS detection of tigecycline and its metabolites in humans, dogs and/or rats; conditions: LC/MS of human serum, urine, feces and rat and dog plasma and urine
Experimental: Characterization of the tigecycline metabolites in human serum, urine and feces, and rat and dog plasma and urine was performed using LC/MS analysis (Table 5).

[2] = Stability of [14C]tigecycline during extraction from control human fecal homogenates; format: in vitro ADME
Description: Similar results were observed following the extraction of [^14C]tigecycline from control fecal homogenates. In these samples, [^14C]tigecycline accounted for 94% of the radioactivity prior to extraction and 68% following the extraction. There was a corresponding increase in the epimer of tigecycline, which represented 4% of the radioactivity prior to extraction and 23% following the extraction. […] Other minor products represented less than 1% of the radioactivity prior to the extraction and 4% following the extraction.
The stability of [^14C]tigecycline during the extraction process was determined in control human fecal homogenates spiked with [^14C]tigecycline at 5 μg/g of homogenate. […] Samples were extracted and analyzed by HPLC with radioactivity flow detection.

[3] = LC/MS characterization of tigecycline related compounds in human serum, urine and feces; format: in vivo; conditions: human, after single 50 mg IV [14C]tigecycline dose
Description: Three HPLC conditions were used during LC/MS analysis in this study. LC/MS Condition 1 was used for the majority of sample analyses for metabolite characterization and to isolate metabolite M3a from urine. LC/MS Condition 2 was used on selected samples to increase the retention time of glucuronide metabolites and for a co-chromatography experiment to confirm the identity of metabolites M8 and M9. LC/MS Condition 3 was used to analyze the polar metabolite M3a isolated from human urine.
The UV detector was set to monitor 340-360 nm. […] The flow rate was 0.2 mL/min. […] The linear mobile phase gradient is shown below.
Separations were accomplished on a Phenomenex Luna C18(2) column (250×2.0 mm, 5 μm) with a Uniguard C18 guard column (10×2 mm) (ThermoHypersil-Keystone). The flow rate was 0.2 mL/min. […] Mobile phase A was 0.02% trifluoroacetic acid in water (v/v) and mobile phase B was 0.02% trifluoroacetic acid in acetonitrile (v/v). The linear mobile phase gradient is shown below.
A Micromass Quattro Ultima triple quadrupole mass spectrometer (Waters Corp.) was operated in the positive ionization mode. LC/MS analysis with electrospray ionization (ESI) was conducted using a Z-spray interface. ESI-MS analysis of individual fractions from selected samples was conducted by direct infusion into a nanospray interface. Settings for the mass spectrometer are listed below.
Urine and feces samples were analyzed for tigecycline metabolites by LC/MS/MS analysis for precursors of product ions characteristic of tigecycline. Additionally, potential metabolites of tigecycline were searched for in the LC/MS data based upon results from previous studies in animals and humans.
Serum extracts were analyzed for tigecycline and selected metabolites by LC/MS/MS in the selected reaction monitoring (SRM) mode (LC/SRM) to reduce interference from endogenous components. […] The following tigecycline related components were monitored.

[4] = Safety and tolerability of intravenous tigecycline in healthy male volunteers; format: in vivo, human; conditions: IV 100-mg dose, five 50-mg doses, single 50-mg [14C]tigecycline dose
Description: The clinical protocol called for twelve subjects.

[5] = Mass balance: percent of [14C]tigecycline dose excreted in human urine and feces
Experimental: The concentration of tigecycline-related components in serum, urine and feces was calculated based on the total radioactivity concentrations reported elsewhere. These concentrations were converted to ng-tigecycline equivalents using the specific activity of the dose (1.00 μCi/mg). Using this value, the concentrations of the specific components were then estimated based on the distribution of radioactivity in the radiochromatograms.
An open-label, inpatient, multiple-dose tigecycline, single-dose [^14C]tigecycline metabolic disposition and mass balance study was performed in six healthy male volunteers. The clinical protocol called for twelve subjects. Of these twelve, six received the radioactive dose (subjects 1, 4, 5, 6, 7, and 8 with subject 8 later dropping out of the study.) Eligible subjects were selected based on inclusion/exclusion criteria, medical history, physical examination and additional procedures outlined in the study protocol. Each subject received a 100 mg loading dose on the morning of Day 1, followed by a 50 mg maintenance dose every 12 hours for an additional 5 doses. On the morning of study Day 4, six subjects received a single 50 mg dose of [^14C]tigecycline (50 μCi). Each tigecycline dose was administered via a 30-minute intravenous infusion.
Serum samples were collected for metabolite profiling prior to tigecycline dosing and 1, 4, 8, 24 and 48 hours following the [^14C]-labeled dose. For metabolite profiling, urine samples were collected at 0-4, 4-8, 8-24 and 24-48 hours and fecal samples were collected up to 48 hours following the [^14C]-labeled dose. Serum and urine samples, and fecal homogenates were shipped on dry ice to the Biotransformation Division of Drug Safety and Metabolism, Wyeth Research, Collegeville, Pa. The details of the sample collection and sample storage are described in the mass balance portion of the study. The 24-48 hour urine and fecal samples for subject #6 were incomplete since the subject withdrew from the study. While samples from this subject were used for metabolite profiling, the samples were not included in the mass balance calculations.

[6] = Estimated concentrations in rabbit serum by LC/MS (SRM) after intravenous tigecycline; format: in vivo, New Zealand White rabbit
Experimental: Three female New Zealand White rabbits, weighing between 3.9 and 4.3 kg at the time of dosing, were used. Animals were given food and water ad libitum. Animals were individually housed in standard cages. Rabbits were dosed at Wyeth Research, Chazy, N.Y. and samples shipped frozen to the Wyeth Research Biotransformation Department, Collegeville, Pa.
Standard curves for tigecycline, M3 and M9 were prepared in rabbit serum. Standard curves were prepared by adding the internal standard and synthetic tigecycline and metabolite standards to control plasma. Standard curve samples were prepared with tigecycline concentrations of 0, 10, 20, 50, 100, 200, 500 and 1000 ng/mL, with the linear range being […]. For 9-aminominocycline (M3), the concentrations were 0, 1, 5, 10, 20, 50, 100 and 200 ng/mL, with the linear range being 10 to 200 ng/mL. For N-acetyl-9-aminominocycline (M9), the concentrations were 1.6, 3.2, 6.4, 16, 32, 64 and 96 ng/mL, with the linear range being from 3.2 to 96 ng/mL. These samples were processed and analyzed as described above.
The column temperature was 25° C. The flow rate was 0.2 mL/min. […] Gradient 1 was used for metabolite identification (qualitative analysis).
Micromass MassLynx (version 4.0, Waters Corp.) was used for analysis of LC/MS data. The concentrations of tigecycline, 9-aminominocycline (M3) and N-acetyl-9-aminominocycline (M9) in serum were calculated based on the analyte to internal standard peak area ratios in the samples as compared to the standard curves generated in rabbit serum.

- Species in which detected [1]: R, D, H
- increase in percent of the radioactivity, control fecal homogenates ([2]; during the extraction): 4%
- percent of the radioactivity, control fecal homogenates ([2]; following the extraction): 5%
- percent of the radioactivity, control fecal homogenates ([2]; prior to extraction, 5 μg/g of homogenate): 1%
- Matrix in which the compound was observed [3]: S, U, F
SMILES: CC(C)(C)NCC(=O)O [Metabolite M3a, t-butylaminoacetic acid]

- Species in which detected [1]: R, D, H
- Percentage of Dose (mean ± standard deviation) excreted ([5]; Feces (0–48 hours), n = 5): 9.9 ± 7.9%
- Percentage of Dose (mean ± standard deviation) excreted ([5]; Total Urine (0-48 hours), n = 5, ND = not detected): 14.8 ± 2.9%
- Percentage of Dose (mean ± standard deviation) excreted ([5]; Total urine + feces (0–48 hours), n = 5): 24.7 ± 8.7%
- Percentage of Dose (mean ± standard deviation) excreted ([5]; Urine 0–4 hours, ND = not detected): 7.1 ± 0.9%
- Percentage of Dose (mean ± standard deviation) excreted ([5]; Urine 4–8 hours, ND = not detected): 2.4 ± 1.1%
- Percentage of Dose (mean ± standard deviation) excreted ([5]; Urine 8–24 hours, ND = not detected): 3.3 ± 1.1%
- Percentage of Dose (mean ± standard deviation) excreted ([5]; Urine 24–48 hours, n = 5, ND = not detected): 1.7 ± 0.7%
- concentration at 0.5 h ([6]; 0.5 hr after 4 mg/kg IV tigecycline, pooled serum, female New Zealand White rabbits): 2020 ng/mL
- concentration at 2 h ([6]; female, New Zealand White, 2 hr after 4 mg/kg IV tigecycline, pooled serum): 1040 ng/mL
- concentration at 6 h ([6]; female, New Zealand White, 6 hr after 4 mg/kg IV tigecycline, pooled serum): 287 ng/mL
- concentration at 1 h ([6]; female, New Zealand White, serum, at 1 hour, 4 mg/kg IV tigecycline): 2020 ng/mL
- Matrix in which the compound was observed [3]: S, U, F
SMILES: CN(C)c1cc(NC(=O)CNC(C)(C)C)c(O)c2c1C[C@H]1C[C@H]3[C@H](N(C)C)C(O)=C(C(N)=O)C(=O)[C@@]3(O)C(O)=C1C2=O [Tigecycline]
- adverse event frequency: dyspepsia [4]: 17%
- adverse event frequency: injection site inflammation [4]: 17%
- adverse event frequency: nausea [4]: 75%
- adverse event frequency: vomiting [4]: 50%
- safety and tolerability [4]: generally safe and well tolerated
